# Measured values reported in patent publication US4348401A, “N-Phenoxyalkylpiperidine derivatives” (Boehringer Mannheim GmbH, priority 1979, dated 1982).
# Tested on: bronchospasm
# Assay: inhibition of antigen-induced bronchospasm (Br Sp), passively sensitized guinea pigs, Konzett and Rossler method as modified by Collier
# Type: in vivo, guinea pig
# Settings: 5 minutes before antigen, 3 minutes after antigen, vs control group
# Experimental: In animals narcotized with 40 mg. sodium pentobarbital/kg. body weight, a Y cannula is introduced into the trachea and a venous cannula is introduced in the jugular vein. A cannula introduced in the carotid artery leads to a measurement chamber (Statham, P 23 Db), with which the arterial pressure is recorded via a direct-current voltage potential measuring bridge. Using a respiratory pump, rats are given an air volume, depending upon the size of the animal, of 1 to 2 ml. 64 times and guinea pigs of 7 to 15 ml. 72 times per minute. […] Upon the appearance of a bronchospasm, initiated by the intravenous administration of the antigen, in the case of the respiratory volume remaining the same, all of the supplied volume of air can no longer flow into the lungs and part of it flows off through a side arm via a valve. The method developed by the firm Basile differs from the method originally described by Konzett and Rossler in that this air volume is measured indirectly via the rate of flow with the help of a thermoelement. The strength of a bronchospasm can then be recorded as a percentage reduction of the available bronchial volume. The theoretically maximum possible bronchospasm is obtained by closing the respiration tube on the animal so that all of the air supplied flows off through the valve.
# Every 30 seconds, the valve is closed for 8 seconds by a relay and the total volume is pumped into the lungs in order again to expand the bronchi and alveoli and thus to make possible a sufficient gas exchange. The percentage decrease of the available bronchial volume (X) is calculated according to the following equation: [formula] wherein a is the amplitude of the recorder in mm. at the commencement of the experiment, b is the height of the amplitude in mm. at a definite point of time and m is the maximum amplitude in mm. after closing the respiration tube on the animal.
# The antigen is 2×crystallized ovalbumin. Equal amounts of a solution of the antigen in physiological sodium chloride solution and complete Freund's adjuvant are emulsified and injected intramuscularly in an amount of 2×0.15 ml. to male guinea pigs. The animals are bled and the pooled serum is stored at -20° C.
# The compounds according to the present invention are administered intravenously 5 minutes before administration of the antigen.
compound,measurement,setting,value
"Cn1c(=O)c2[nH]cnc2n(C)c1=O [aminophylline, reference compound]",% inhibition Br Sp,dosage 24 mg/kg i.v.,29%
"O=C(NC1CCN(CCCOc2ccccc2C(=O)O)CC1)c1ccccc1 [Example 7, 2-[3-(4-Benzamidopiperidino)-propoxy]-benzoic acid]",% inhibition Br Sp,dosage 1.5 mg/kg i.v.,45%
"Cc1ccccc1C(=O)NC1CCN(CCCOc2ccccc2-c2nnn[nH]2)CC1 [Example 10g, 5-{2-{3-[4-(2-methylbenzamido)-piperidino]-propoxy}-phenyl}-1H-tetrazole]",% inhibition Br Sp,dosage 0.75 mg/kg i.v.,71%
"NC(=O)c1ccccc1OCCCN1CCC(NC(=O)c2ccccc2)CC1 [Example 2b, 2-[3-(4-benzamidopiperidino)-propoxy]-benzamide]",% inhibition Br Sp,dosage 0.38 mg/kg i.v.,67%
"O=C(NC1CCN(CCCOc2ccccc2-c2nnn[nH]2)CC1)c1ccccc1 [Example 9, 5-{2-[3-(4-Benzamidopiperidino)-propoxy]-phenyl}-1H-tetrazole]",% inhibition Br Sp,dosage 0.1 mg/kg i.v.,56%
"COC(=O)c1ccccc1OCCCN1CCC(NC(=O)c2ccccc2)CC1 [Example 2a, methyl 2-[3-(4-benzamidopiperidino)-propoxy]-benzoate]",% inhibition Br Sp,dosage 3.0 mg/kg i.v.,71%
